{"source": "ChEMBL document CHEMBL2046269", "about": "“Phthalide and isocoumarin derivatives produced by an Acremonium sp. isolated from a mangrove Rhizophora apiculata” (2012)", "tested_on": "Candida albicans", "assay": "Antifungal activity against Candida albicans NCPF 3153 after 15 hrs by colorimetric broth microdilution test", "format": "functional", "details": "NCPF 3153, 15 h"}
{"smiles": "C[C@H]1CCC/C=C/[C@@H]2C[C@H](O)C[C@H]2[C@H](O)/C=C/C(=O)O1", "note": "[BREFELDIN A]", "values": [{"measurement": "MIC", "value": 32, "unit": "mg/L"}]}
